Laboratory results: article PMC7180738, “Design, Synthesis and Characterization of a New Series of Fluorescent Metabotropic Glutamate Receptor Type 5 Negative Allosteric Modulators” (Molecules, 2020)

Molecular target: T1, mGlu5bR (metabotropic glutamate receptor type 5) (Rattus norvegicus, UniProt P31424)
T1 construct: gene Grm5; mGlu5bR^NL: NanoLuc fused at the N terminus of rat mGlu5bR, expressed in HEK293T cells
Assay: NanoBRET saturation binding in living HEK293T cells, displaced by […] MTEP; also NFAT-luciferase NAM assay
Format: cell-based

T1 sequence (P31424 21-1203): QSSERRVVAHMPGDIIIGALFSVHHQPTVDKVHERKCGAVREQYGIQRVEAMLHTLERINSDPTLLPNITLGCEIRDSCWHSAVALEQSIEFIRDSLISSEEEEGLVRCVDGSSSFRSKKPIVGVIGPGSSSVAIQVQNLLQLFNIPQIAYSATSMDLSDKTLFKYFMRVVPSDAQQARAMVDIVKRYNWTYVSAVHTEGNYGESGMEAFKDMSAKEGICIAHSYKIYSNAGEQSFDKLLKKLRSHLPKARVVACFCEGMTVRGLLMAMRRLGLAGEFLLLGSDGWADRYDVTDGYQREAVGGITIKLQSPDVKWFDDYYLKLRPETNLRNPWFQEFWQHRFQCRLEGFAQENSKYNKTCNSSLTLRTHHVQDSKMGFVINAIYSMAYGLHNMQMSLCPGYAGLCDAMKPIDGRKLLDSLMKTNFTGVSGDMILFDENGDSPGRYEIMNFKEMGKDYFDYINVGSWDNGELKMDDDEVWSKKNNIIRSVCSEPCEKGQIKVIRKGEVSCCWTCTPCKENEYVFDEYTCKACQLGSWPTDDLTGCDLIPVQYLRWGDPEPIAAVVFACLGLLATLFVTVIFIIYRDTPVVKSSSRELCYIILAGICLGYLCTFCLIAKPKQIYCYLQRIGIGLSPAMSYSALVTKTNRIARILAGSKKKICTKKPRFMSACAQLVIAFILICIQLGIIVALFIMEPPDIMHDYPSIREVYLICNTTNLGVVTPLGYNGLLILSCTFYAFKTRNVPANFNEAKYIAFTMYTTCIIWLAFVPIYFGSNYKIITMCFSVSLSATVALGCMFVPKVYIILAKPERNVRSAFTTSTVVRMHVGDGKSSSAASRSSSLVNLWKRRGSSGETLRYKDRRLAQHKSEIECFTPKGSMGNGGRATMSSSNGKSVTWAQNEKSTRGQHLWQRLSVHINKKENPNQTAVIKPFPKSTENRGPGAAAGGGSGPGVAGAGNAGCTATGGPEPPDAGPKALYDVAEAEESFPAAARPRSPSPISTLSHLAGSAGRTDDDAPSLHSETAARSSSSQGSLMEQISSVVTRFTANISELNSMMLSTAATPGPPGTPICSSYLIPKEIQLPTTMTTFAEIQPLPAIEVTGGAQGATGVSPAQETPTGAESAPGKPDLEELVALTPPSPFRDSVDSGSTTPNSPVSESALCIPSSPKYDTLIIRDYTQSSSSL

| SMILES | Kd |
| --- | --- |
| COc1ccc(C2=[N+]3C(=C(CCCCc4cn(CCCCCCCCN(C)CCCCCNC(=O)COc5cncc(C#Cc6csc(C)n6)c5)nn4)c4ccc(-c5ccc(OC)cc5)n4[B-]3(F)F)C=C2)cc1 [4e, N-(5-((8-(4-(4-(5,5-difluoro-3,7-bis(4-methoxyphenyl)-5H-4λ^4,5λ^4-dipyrrolo[1,2-c:2’,1’-f][1,3,2]diazaborinin-10-yl)butyl)-1H-1,2,3-triazol-1-yl)octyl)(methyl)amino)pentyl)-2-((5-((2-methylthiazol-4-yl)ethynyl)pyridin-3-yl)oxy)acetamide] | 1400 ± 1200 nM |
| COc1ccc(C2=[N+]3C(=C(CCCCc4cn(CCOCCOCCOCCOCCOCCNC(=O)COc5cncc(C#Cc6csc(C)n6)c5)nn4)c4ccc(-c5ccc(OC)cc5)n4[B-]3(F)F)C=C2)cc1 [4a, N-(17-(4-(4-(5,5-difluoro-3,7-bis(4-methoxyphenyl)-5H-4λ^4,5λ^4-dipyrrolo [1,2-c:2’,1’-f][1,3,2]diazaborinin-10-yl)butyl)-1H-1,2,3-triazol-1-yl)-3,6,9,12,15-pentaoxaheptadecyl)-2-((5-((2-methylthiazol-4-yl)ethynyl)pyridin-3-yl)oxy)acetamide] | 840 ± 740 nM |
